{"source": "patent US8980926B2", "about": "“2-aminoindole compounds and methods for the treatment of malaria” (Genzyme Corporation, priority 2009, dated 2015)", "key": {"[1]": {"assay": "Mammalian cytotoxicity, kidney epithelial", "type": "cell-based", "details": "normal human renal proximal tubule cells; read-out: Selectivity, Mammalian cytotoxicity (IC50; μM) Kidney epithelial"}, "P. berghei ANKA strain": {"tested_on": "P. berghei ANKA strain", "assay": "In vitro potency against P. berghei ANKA", "type": "cell-based", "details": "Plasmodium berghei, read-out: Potency (IC50; nM) Plasmodium spp. Pb ANKA"}, "P. knowlesi strain H1": {"tested_on": "P. knowlesi strain H1", "assay": "In vitro potency against P. knowlesi H1 in Rhesus blood cells (3H-hypoxanthine incorporation)", "type": "cell-based", "details": "Plasmodium knowlesi, in Macaca mulatta, read-out: Potency (IC50; nM) Plasmodium spp. Pk H1", "description": "Selected compounds were tested against P. knowlesi H1 strain parasites cultured in Rhesus blood cells as a surrogate for P. vivax infections using the method of Kocken and coworkers (Kocken, C. H., H. Ozwara, A. van der Wel, A. L. Beetsma, J. M. Mwenda, and A. W. Thomas. 2002. Plasmodium knowlesi provides a rapid in vitro and in vivo transfection system that enables double-crossover gene knockout studies. Infect Immun 70:655-660). Briefly, P. knowlesi were cultured in 2% Rhesus macaque erythrocytes (New England Primate Research Center) in RPMI culture media containing 10% Human O+ serum (Interstate Blood Bank). Schizont stage parasites were purified by floatation in 60% Percoll (GE life sciences) and allowed to reinvade to generate a synchronous population of ring stage parasites. Drug assays were performed by plating ring stage parasites at 0.5% parasitemia in triplicate, in RPMI containing 2.5 μg/ml hypoxanthine. Parasites were incubated for 24 hours with serially diluted test compounds. After 24 hours, thin smears were made to confirm that reinvasion had occurred, 0.5 μCi ^3H-labeled hypoxanthine (Perkin Elmer) were added to each well, and parasites were allowed to progress through S-phase to early schizonts. Cells were then harvested via glass filter plates and ^3H incorporation was measured by scintillation counting. Values were normalized to percentage of controls containing no drug, and IC50 values were generated (GraphPad Prism®)."}, "malaria": {"tested_on": "malaria", "assay": "In vivo efficacy in an animal (rodent) model of malaria (FIGS. 1, 2)", "details": "FIG. 1"}, "hERG": {"biological_target": "T1, hERG (Homo sapiens, UniProt Q12809)", "T1 construct": "expressed in transfected cells; host or cells: Chinese hamster ovary cells (from the earlier reading's assay name)", "T1 sequence (Q12809 whole entry)": "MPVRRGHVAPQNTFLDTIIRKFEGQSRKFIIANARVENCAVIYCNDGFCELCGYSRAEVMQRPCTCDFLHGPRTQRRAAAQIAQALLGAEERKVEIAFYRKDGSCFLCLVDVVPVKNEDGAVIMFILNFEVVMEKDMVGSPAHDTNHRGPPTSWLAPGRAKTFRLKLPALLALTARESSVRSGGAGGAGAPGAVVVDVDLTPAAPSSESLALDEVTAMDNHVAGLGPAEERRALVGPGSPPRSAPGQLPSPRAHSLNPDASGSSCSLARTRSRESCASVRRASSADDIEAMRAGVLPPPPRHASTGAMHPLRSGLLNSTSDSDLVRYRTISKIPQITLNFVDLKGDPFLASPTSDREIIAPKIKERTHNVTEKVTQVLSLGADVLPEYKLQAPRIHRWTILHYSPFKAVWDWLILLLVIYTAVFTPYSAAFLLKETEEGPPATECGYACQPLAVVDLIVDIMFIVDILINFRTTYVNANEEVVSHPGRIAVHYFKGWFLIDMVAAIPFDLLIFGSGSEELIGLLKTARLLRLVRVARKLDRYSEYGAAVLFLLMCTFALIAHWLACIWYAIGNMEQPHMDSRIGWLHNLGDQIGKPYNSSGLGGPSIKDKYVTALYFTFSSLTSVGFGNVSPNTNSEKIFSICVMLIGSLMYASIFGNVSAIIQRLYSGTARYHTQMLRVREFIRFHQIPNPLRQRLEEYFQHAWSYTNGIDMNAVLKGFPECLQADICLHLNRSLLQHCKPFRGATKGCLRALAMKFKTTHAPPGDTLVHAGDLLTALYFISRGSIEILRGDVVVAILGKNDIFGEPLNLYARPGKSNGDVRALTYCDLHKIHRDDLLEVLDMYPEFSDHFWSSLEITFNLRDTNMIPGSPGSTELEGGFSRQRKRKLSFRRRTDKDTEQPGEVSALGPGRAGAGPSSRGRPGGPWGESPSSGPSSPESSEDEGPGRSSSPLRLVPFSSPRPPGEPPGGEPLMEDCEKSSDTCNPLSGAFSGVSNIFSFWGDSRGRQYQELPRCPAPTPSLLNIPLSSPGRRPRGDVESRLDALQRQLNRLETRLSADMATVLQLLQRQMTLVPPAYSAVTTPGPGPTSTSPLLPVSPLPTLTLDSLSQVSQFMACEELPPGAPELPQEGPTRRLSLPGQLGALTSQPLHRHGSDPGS", "assay": "hERG in Chinese hamster ovary cells", "type": "cell-based"}, "[2]": {"tested_on": "Plasmodium falciparum strain Dd2", "assay": "In vitro potency against P. falciparum strain Dd2", "type": "cell-based", "details": "read-out: Potency (IC50; nM) Plasmodium spp. Pf Dd2"}, "P. berghei N-clone": {"tested_on": "P. berghei N-clone", "assay": "In vivo efficacy against P. berghei in mice (4-day suppressive test, oral)", "set-up": "species or system P. berghei in Swiss Albino mice", "details": "for Average Day of Recrudescence: Study Day; for No. Cured: animals cured/group; for Recrudescence (no. animals/total): no parasites on Day 5 but later regressed; for % Suppression Day 5: vs untreated controls", "from_the_text": "Because of ethical issues and costs, the acute P. berghei model in rodents is considered the “gold standard” for assessing anti-malarial efficacy in animal models. This model is adapted from Peters' “4-day suppressive test” (Peters, W. 1987. Chemotherapy and Drug Resistance in Malaria, p. 102-115, 2ed, vol. 1. Academic Press, Orlando, Fla.; Peters, W. 1975. The chemotherapy of rodent malaria, XXII. The value of drug-resistant strains of P. berghei in screening for blood schizontocidal activity. Ann Trop Med Parasitol 69:155-171). All studies were conducted in accordance with the Guide for the Care and Use of Laboratory Animals (National-Research-Council. 1996. Guide for the Care and Use of Laboratory Animals. National Academy Press, Washington, D.C.) and the PHS guidelines. Animals were maintained according to NIH guidelines and were allowed to acclimatize for 1 week prior to the commencement of studies. On Day 0, groups of 4-6-week old female Swiss Albino mice (n=5) were infected by tail vein injection with 0.2 ml heparinized blood diluted to contain 1×10^7 N-clone parasites. The aminoindole analogs were formulated in 1.6% lactic acid mixed sodium salt, 1% Tween 80, 9% ethanol and 20% Cerestar (hydroxypropyl β-cyclodextrin; Wacker Chimie) and were administered by oral gavage. […] Animals in the Control-group received vehicle alone. Dose concentration and frequency of dosing were based upon preliminary tolerability/exposure studies. On Day 4 post-infection (5th day of assay) blood was collected by tail-nick, and thin smear microscope slides were prepared and stained using Diff Quick®. Parasitized erythrocytes were counted and compared with the total number of erythrocytes per microscopic field to determine the percent parasitemia. A minimum of 350 erythrocytes were counted. Animals showing no detectable parasites on Day 4 were examined every 2-3 days to determine whether cure was sterile. Animals with no detectable parasites 28 days after cessation of dosing (Study Day 33) were considered cured."}, "P. falciparum strain 3D7": {"tested_on": "P. falciparum strain 3D7", "assay": "In vitro potency against P. falciparum strain 3D7 (SYBR green/DAPI)", "type": "cell-based", "details": "Plasmodium falciparum"}, "[3]": {"assay": "Mammalian cytotoxicity, dermal fibroblast", "type": "cell-based", "details": "human, normal human dermal fibroblasts (Clonetics #CC-2509); read-out: Selectivity, Mammalian cytotoxicity (IC50; μM) Dermal Fibroblast"}, "Erythrocyte lysis": {"assay": "Erythrocyte lysis", "type": "cell-based", "details": "erythrocytes, read-out: Selectivity, Mammalian cytotoxicity (IC50; μM) Eryth. Lysis"}, "[4]": {"tested_on": "P. falciparum Pf3D7^0087/N9", "assay": "In vivo efficacy against P. falciparum in humanized mice", "details": "b.i.d.", "experimental": "Briefly, groups of 3 animals were infected on Day 0 with 2×10^7 P. falciparum parasites and were treated orally once per day for 4 days with 5, 25 and 100 mg/kg/day formulated as described above beginning on Day 3 post infection. In parallel, groups of 3 animals were infected on Day 0 with 1×10^7 parasites on Day 0 and received the same doses beginning 1 hr after infection. Parasitemia was assessed by FACS as previously described (Jiménez-Díaz, M.-B., et al. 2009. Cytometry Part A 75:225-235. In the same humanized murine system, efficacy was also tested against P. berghei, with animals infected on Day 0 (Jimenez-Diaz, M. B., et al. 2005. Cytometry A 67:27-36). Results are shown in Table 5."}, "[5]": {"tested_on": "P. berghei ANKA strain GFP MRA-865", "assay": "In vivo efficacy against P. berghei ANKA GFP in the humanized murine system", "set-up": "species or system P. berghei in mice", "details": "b.i.d."}, "[6]": {"details": "read-out: Potency (IC50; nM) Plasmodium spp. Pf 3D7"}, "[7]": {"details": "reductions in parasitemia, read-out: IC50 values"}}, "note": "Read-outs that look alike come from different tables or passages of the source.", "data": [{"smiles": "NC1=Nc2ccc(Cl)cc2C1(O)c1ccccc1", "note": "(centres unmarked) [Compound 1]", "values": [{"measurement": "IC50", "setting": "[1]", "result": "> 242", "unit": "µM"}, {"measurement": "IC50", "setting": "P. berghei ANKA strain", "result": 1560, "unit": "nM"}, {"measurement": "IC50", "setting": "P. knowlesi strain H1", "result": 336, "unit": "nM"}, {"measurement": "in vivo efficacy (treatment of malaria)", "setting": "malaria; 50 mg/kg dose, IP administration for four days", "result": "effectively treated malaria"}, {"measurement": "in vivo efficacy, dose dependence", "setting": "malaria; IP administration for four days at various doses", "result": "dose-response relationship was observed"}, {"measurement": "Selectivity, hERG (μM) CHO", "setting": "hERG", "result": ">25", "unit": "µM"}, {"measurement": "IC50", "setting": "[2]", "result": 285, "unit": "nM"}, {"measurement": "Average Day of Recrudescence", "setting": "P. berghei N-clone; 50 mg/kg/day b.i.d. p.o.", "result": 13, "unit": "days"}, {"measurement": "No. Cured", "setting": "P. berghei N-clone; 50 mg/kg/day b.i.d. p.o.", "result": "0/5"}, {"measurement": "Recrudescence (no. animals/total)", "setting": "P. berghei N-clone; 50 mg/kg/day b.i.d. p.o.", "result": "5/5"}, {"measurement": "% Suppression Day 5", "setting": "P. berghei N-clone; 50 mg/kg/day b.i.d. p.o.", "result": 100, "unit": "%"}, {"measurement": "IC50", "setting": "P. falciparum strain 3D7; [6]", "result": 200, "unit": "nM"}, {"measurement": "IC50", "setting": "P. falciparum strain 3D7; [7]", "result": "100 to 500", "unit": "nM"}, {"measurement": "IC50", "setting": "[3]", "result": "> 242", "unit": "µM"}, {"measurement": "IC50", "setting": "Erythrocyte lysis", "result": "> 155", "unit": "µM"}]}, {"smiles": "CCOc1ccc(F)cc1[C@@]1(O)C(N)=Nc2ccc(Cl)cc21", "note": "(stereo in doubt) [Compound 267]", "values": [{"measurement": "IC50", "setting": "[1]", "result": "> 195", "unit": "µM"}, {"measurement": "ED50 P. falciparum Pf3D7^0087/N9", "setting": "[4]", "result": 40, "unit": "mg/kg/day"}, {"measurement": "ED90 P. falciparum Pf3D7^0087/N9", "setting": "[4]", "result": 74, "unit": "mg/kg/day"}, {"measurement": "ED50 P. berghei ANKA strain GFP MRA-865", "setting": "[5]", "result": 19, "unit": "mg/kg/day"}, {"measurement": "ED90 P. berghei ANKA strain GFP MRA-865", "setting": "[5]", "result": 30, "unit": "mg/kg/day"}, {"measurement": "IC50", "setting": "P. berghei ANKA strain", "result": 331, "unit": "nM"}, {"measurement": "IC50", "setting": "P. knowlesi strain H1", "result": 26, "unit": "nM"}, {"measurement": "Selectivity, hERG (μM) CHO", "setting": "hERG", "result": 36.6, "unit": "µM"}, {"measurement": "IC50", "setting": "[2]", "result": 65, "unit": "nM"}, {"measurement": "Average Day of Recrudescence", "setting": "P. berghei N-clone; 100 mg/kg/day b.i.d. p.o.", "result": 14, "unit": "days"}, {"measurement": "No. Cured", "setting": "P. berghei N-clone; 100 mg/kg/day b.i.d. p.o.", "result": "0/5"}, {"measurement": "Recrudescence (no. animals/total)", "setting": "P. berghei N-clone; 100 mg/kg/day b.i.d. p.o.", "result": "2/4"}, {"measurement": "% Suppression Day 5", "setting": "P. berghei N-clone; 100 mg/kg/day b.i.d. p.o.", "result": 95, "unit": "%"}, {"measurement": "Average Day of Recrudescence", "setting": "P. berghei N-clone; 200 mg/kg/day b.i.d. p.o.", "result": 12, "unit": "days"}, {"measurement": "No. Cured", "setting": "P. berghei N-clone; 200 mg/kg/day b.i.d. p.o.", "result": "3/5"}, {"measurement": "Recrudescence (no. animals/total)", "setting": "P. berghei N-clone; 200 mg/kg/day b.i.d. p.o.", "result": "2/5"}, {"measurement": "% Suppression Day 5", "setting": "P. berghei N-clone; 200 mg/kg/day b.i.d. p.o.", "result": 100, "unit": "%"}, {"measurement": "ED50 P. berghei N-clone", "setting": "P. berghei N-clone; b.i.d.", "result": 32, "unit": "mg/kg/day"}, {"measurement": "ED90 P. berghei N-clone", "setting": "P. berghei N-clone; b.i.d.", "result": 68, "unit": "mg/kg/day"}, {"measurement": "cures", "setting": "P. berghei N-clone; doses of 100-200 mg/kg/day", "result": "able to affect cures"}, {"measurement": "ED50 P. berghei N-clone", "setting": "P. berghei N-clone; t.i.d.", "result": 35, "unit": "mg/kg/day"}, {"measurement": "ED90 P. berghei N-clone", "setting": "P. berghei N-clone; t.i.d.", "result": 58, "unit": "mg/kg/day"}, {"measurement": "IC50", "setting": "P. falciparum strain 3D7; [6]", "result": 28, "unit": "nM"}, {"measurement": "IC50", "setting": "P. falciparum strain 3D7; [7]", "result": "1 to 100", "unit": "nM"}, {"measurement": "IC50", "setting": "[3]", "result": "> 195", "unit": "µM"}, {"measurement": "IC50", "setting": "Erythrocyte lysis", "result": "> 125", "unit": "µM"}]}]}
